{"source": "patent US6348571B1", "about": "“Corticotropin release inhibiting factor and methods of using same” (Northwestern University, priority 1994, dated 2002)", "key": {"At-20 cells": {"test_system": "At-20 cells", "assay": "Inhibition of PMA- or forskolin-stimulated ACTH release in At-20 cells by small CRIF peptides", "format": "cell-based", "settings": "PMA 100 nM, FIG. 18", "experimental": "FIG. 19 is a graph and amino acid sequences [SEQ ID NOS:1, 6 and 5, resepctively], where the graph depicts the fact that forskolin-stimulated ACTH secretion is inhibited by peptides derived from prepro-TRH 178-199. The biological activity of small CRIF peptides was tested in vitro, using inhibition of ACTH release in At-20 cells as the bioassay. These peptides were tested in 2-7 independent experiments, where treatments were added in triplicate. Forskolin was used at a concentration of 20 μM, and PMA was used at a concentration of 100 nM.\nCRIF peptides having either four contiguous amnino acids or nine contiguous amino acids positioned between the fourth and fifth TRH sequence in a rprepro-TRH polypeptide were prepared. These peptides are referred to herein as rprepro-TRH 196-199 (SEQ ID NO:5, having four contiguous amino acids) and rprepro-TRH 191-199 (SEQ ID NO:6, having nine contiguous amino acids). The CRIF activity of each of these peptides was assessed in vitro in a bioassay, wherein inhibition of ACTH release in At-20 cells was used as a measure of CRIF activity. Full length CRIF (rprepro-TRH 178-199) was used as a positive control. […] Thus, CRIF peptides having less than twenty two contiguous amino acids have CRIF activity."}, "AtT-20 cells": {"test_system": "AtT-20 cells", "assay": "Bioassay of synthetic prepro-TRH peptides: ACTH secretion in AtT-20 cells", "format": "cell-based, mouse", "settings": "peptide 10^-10-10^-6 M, 4 hours, 50 nM CRF", "experimental": "(§1) The bioactivity of various synthetic peptides corresponding to the various prepro-TRH intervening sequences was assessed in AtT-20 or primary anterior pituitary cells. All experiments were conducted in triplicate. To perform this assay, AtT-20 cells were plated at a density of 10^5 cells/well in 24 well plates. After 24 hours, the medium was removed and replaced with steroid-free medium containing the test peptide at a concentration of 10^−10-10^−6 M. When primary pituitary cultures were used, freshly dispersed anterior pituitary cells (1-2×10^5 cells/well) were plated in 24 well plates for 48 hours using steroid free media. Again, after 24 hours, the medium was removed and replaced with steroid-free medium containing the test peptide at a concentration of 10^−10-10^−6 M. The supernatants from the cells were harvested after 4 hours of incubation under unstimulated or CRF-stimulated conditions. AtT-20 cells were stimulated with 50 nM CRF and primary pituitary cells were stimulated with 10 nM CRF. The supernatants were centrifuged and stored at −80° C.\n(§2) ACTH-like immunoreactivity was measured using an antiserum which reacts with amino acids 1-24 and 1-39 on ACTH on an equimolar basis. The assay is described in Redei et al. (1988, Endocrinology, 123:2736-2743). For these studies, ^125I-ACTH 1-39 was used as a tracer. This assay is capable of detecting as little as 3 pg ACTH/tube. Intraassay and interassay coefficients of variation were 6.4% and 11.6% respectively.\nPeptides prepro-TRH 115-151, 160-169 and 178-199 were obtained from Penninsula Lab Inc. (Belmont, Calif.); peptides prepro-TRH 53-74, 83-106 and TRH precursor peptide (Lys-Arg-Gln-His-Pro-Gly-Lys-Arg) were obtained from American Peptide Co. Inc. (Sunnyvale, CA); and, peptides prepro-TRH 25-50, 208-220 and 230-255 were obtained from Quality Control QCB, Hopkington, Mass."}, "[1]": {"test_system": "primary anterior pituitary cells", "assay": "Bioassay of synthetic prepro-TRH peptides: ACTH secretion in primary anterior pituitary cells", "format": "cell-based", "settings": "primary pituitary cell cultures, 10 nM CRF", "experimental": "as §1\nas §2, with “Intraassay and interassay coefficients of variation were 6.4% and 11.6% respectively.” left out"}, "F344XBN rats": {"test_system": "F344XBN rats", "assay": "Forced swim test after sub-acute icv administration", "format": "in vivo", "experimental": "In FIG. 20 there is shown data which establish that prepro-TRH 191-199 decreased immobility in the forced swim test when the peptide was administered to a rat icv. In this experiment, adult male Sprague-Dawley or F1 Brown Norway/Fisher344 rats were used in these experiments. Rats were implanted with cannulae into the lateral ventricle as described previously (McGivern, 1997, J. Neurosci. 17:4886-4894). For the stereotaxic surgery, animals were anesthetized (ketamine, 50 mg/kg/xylazine, 8 mg/kg) and positioned in a stereotaxic head fame. At the end of behavioral testing, placements will be verified by anesthetizing the animal with pentobarbital (45 mg/kg) and injecting 1 μl tryphan blue staining solution through the cannulae just prior to decapitation. Only data from animals with correct placement were included in the analysis.\nAt least 7 days after the stereotaxic surgery, animals were subjected to an initial 15 minute swim pretest, followed by a 5-minute swim test 24 hours later. Rats received two injections of sterile vehicle or prepro-TRH 178-199 (1.5, 3.0, 6.0 or 12.0 μg/kg; 0.6, 1.2., 2.3 and 4.6 nmol/kg) in […] between the pretest and the test. 15 minutes after the initial (pre)-swim and 5 minutes before the test swim. In the case of prepro-TRH 191-199 administration, the C-terminal peptide was administered in this sub-acute fashion at 2.2 μg/kg (2.3 nmol/kg) dose, which is equivalent to 6 μg/kg prepro-TRH 178-199. Water was chosen instead of saline or artificial CSF for solubility reasons: the peptide dissolved much better in sterile, pyrogen-free water and animals tolerated this vehicle very well even after 14 days of daily administration. F344XBN rats were used. Prepro-TRH 191-199 had effects very similar to those of the full-length peptide."}, "rats": {"test_system": "rats", "assay": "Side effects in rats treated in vivo with CRIF"}, "[2]": {"test_system": "SCW-induced inflammatory response", "assay": "Thyroid status and SCW-induced inflammatory response in female rats", "format": "in vivo, rat", "excerpt": "RA is an autoimmune disease characterized by chronic degradation of the joints resulting from inflammation of synovial membranes. SCW-induced inflammation in the autoimmune prone female Lewis rat is an accepted animal model for the study of RA. […] It is likely that increased thyroid activity decreases the susceptibility to inflammatory immune disease by increasing glucocorticoid levels. The discovery of CRIF encoded within the same precursor as TRH establishes a direct link between the HPA and thyroid axes. Thyroid hormones may play a fundamental role in regulating the HPA axis by modulation of levels of prepro-TRH mRNA.\nTo determine the role played by thyroid hormones and concomitant changes in the HPA axis in the development of SCW-induced inflammatory response, expression of genes which reflect the status of thyroid function (TRH), pituitary-adrenal activity (POMC) and inflammation (IL-1β and MIP-1α, a macrophage specific inflammatory protein) was measured. Adult female rats were fed a regular diet (control), or a regular diet plus 0.012% T4 (hyperthyroid) or 0.05% 6-propyl-thiouracil (PTU) supplied in the in drinking water (hypothyroid), for seven weeks. A preparation of SCW (20 μg/g of body weight) was administered intraperitoneally to the rats three days before decapitation. Anterior pituitary POMC, hypothalamic TRH and peritoneal macrophage IL-1β and MIP-1α mRNA levels were assessed by Northern blot hybridization analysis using specific cDNA probes. The levels of mRNA were normalized to the housekeeping gene, GAPD, and were quantified by image analysis densitometry. Plasma levels of TSH and CORT were determined by RIA."}}, "note": "Ends that are not written are not given here.", "data": [{"compound": "Leu-Met-Pro-Glu (LMPE; printed: Leu-Met-Pro-Glu) [prepro-TRH 196-199, CRIF peptide having four contiguous amino acids]", "values": [{"measurement": "PMA-stimulated ACTH secretion", "setting": "At-20 cells", "result": "capable of inhibiting ACTH secretion at levels which are comparable to those achieved using full length CRIF"}]}, {"compound": "prepro-TRH 230-255: intervening peptide of rat prepro-TRH, amino acids 230-255 (DLSRGQETLVKQSPQVEPWDKEPLEE; UniProt P01150 230-255, looked up, fragment)", "values": [{"measurement": "bioactivity: basal and CRF-stimulated ACTH secretion", "setting": "AtT-20 cells", "result": "only the peptide comprising amino acids 178-199 exhibited bioactivity"}, {"measurement": "CRIF activity (ACTH secretion)", "setting": "[1]", "result": "only peptide 178-199 exhibited CRIF activity"}]}, {"compound": "prepro-TRH 115-151: intervening peptide of rat prepro-TRH, amino acids 115-151 (ANQDKYSWADEEDSDWMPRSWLPDFFLDSWFSDVPQV; UniProt P01150 115-151, looked up, fragment)", "values": [{"measurement": "bioactivity: basal and CRF-stimulated ACTH secretion", "setting": "AtT-20 cells", "result": "only the peptide comprising amino acids 178-199 exhibited bioactivity"}]}, {"compound": "prepro-TRH 160-169: intervening peptide of rat prepro-TRH, amino acids 160-169 (SFPWMESDVT; UniProt P01150 160-169, looked up, fragment)", "values": [{"measurement": "bioactivity: basal and CRF-stimulated ACTH secretion", "setting": "AtT-20 cells", "result": "only the peptide comprising amino acids 178-199 exhibited bioactivity"}]}, {"compound": "EGEGVLMPE [prepro-TRH 191-199, CRIF peptide having nine contiguous amino acids]", "values": [{"measurement": "PMA-stimulated ACTH secretion", "setting": "At-20 cells", "result": "capable of inhibiting ACTH secretion at levels which are comparable to those achieved using full length CRIF"}, {"measurement": "floating in the forced swim test", "setting": "F344XBN rats; icv sub-acute, equimolar 2.3 nmol/kg (2.2 μg/kg 191-199; 6 μg/kg 178-199), p<0.001", "result": "significantly decreased"}, {"measurement": "climbing in the forced swim test", "setting": "F344XBN rats; icv sub-acute, equimolar 2.3 nmol/kg (2.2 μg/kg 191-199; 6 μg/kg 178-199), p<0.01", "result": "increased"}, {"measurement": "immobility in the forced swim test", "setting": "F344XBN rats; icv, rat", "result": "decreased"}]}, {"compound": "FIDPELQRSWEEKEGEGVLMPE [prepro-TRH 178-199]", "values": [{"measurement": "side effects associated with administration", "setting": "rats", "result": "no discernible deleterious side effects"}]}, {"compound": "prepro-TRH 208-220: intervening peptide of rat prepro-TRH, amino acids 208-220 (ALGHPCGPQGTCG; UniProt P01150 208-220, looked up, fragment)", "values": [{"measurement": "bioactivity: basal and CRF-stimulated ACTH secretion", "setting": "AtT-20 cells", "result": "only the peptide comprising amino acids 178-199 exhibited bioactivity"}]}, {"compound": "CCCc1cc(=O)[nH]c(=S)[nH]1", "note": "[PTU, 6-propyl-thiouracil]", "values": [{"measurement": "increase in macrophage MIP-1α mRNA levels on SCW administration", "setting": "[2]; SCW 20 μg/g ip, SCW-administered control rats 17-fold", "result": 22, "unit": "fold"}, {"measurement": "plasma CORT levels", "setting": "[2]; altered thyroid status, FIG. 12E", "result": "significant decrease"}, {"measurement": "increase of hypothalamic TRH mRNA levels", "setting": "[2]; hypothyroid group, 0.05% in drinking water, seven weeks, p<0.01", "result": 52, "unit": "%"}]}, {"compound": "KRQHPGKR [TRH precursor peptide]", "values": [{"measurement": "CRIF activity (ACTH secretion)", "setting": "[1]", "result": "only peptide 178-199 exhibited CRIF activity"}]}, {"compound": "prepro-TRH 25-50: intervening peptide of rat prepro-TRH, amino acids 25-50 (LPEAAQEEGAVTPDLPGLENVQVRPE; UniProt P01150 25-50, looked up, fragment)", "values": [{"measurement": "bioactivity: basal and CRF-stimulated ACTH secretion", "setting": "AtT-20 cells", "result": "only the peptide comprising amino acids 178-199 exhibited bioactivity"}]}, {"compound": "prepro-TRH 83-106: intervening peptide of rat prepro-TRH, amino acids 83-106 (EEEEKDIEAEERGDLGEGGAWRLH; UniProt P01150 83-106, looked up, fragment)", "values": [{"measurement": "bioactivity: basal and CRF-stimulated ACTH secretion", "setting": "AtT-20 cells", "result": "only the peptide comprising amino acids 178-199 exhibited bioactivity"}]}, {"compound": "prepro-TRH 53-74: intervening peptide of rat prepro-TRH, amino acids 53-74 (FLWKDLQRVRGDLGAALDSWIT; UniProt P01150 53-74, looked up, fragment)", "values": [{"measurement": "bioactivity: basal and CRF-stimulated ACTH secretion", "setting": "AtT-20 cells", "result": "only the peptide comprising amino acids 178-199 exhibited bioactivity"}]}]}
